Where two headings read alike, the source gives them in different places. [8-DEA-tC] = 8-diethylamino tricyclic cytidine analogue (fluorescent), on 2'-deoxyribose
Experiments:
[1] = Quantum yield of fluorescence emission, comparative method of Williams et al., quinine sulfate standard (free nucleosides, single-stranded oligonucleotides); assay type: physicochemical
Method: (§1) Quantum yields of fluorescence emission were determined using the comparative method of Williams et. al. (Analyst 1983, 108, 1067) and a fluorescence standard of quinine sulfate in 0.1M H2SO4 (Table 1 and FIG. 2). The single-stranded oligonucleotides have quantum yields of fluorescence emission ranging from Φem=0.01-0.03, all brighter than the free 8-DEA-tC nucleoside by up to a factor of five. Addition of the complementary sequences and duplex formation results in further fluorescence increase in all sequences, up to Φem=0.12 for sequence GC. This quantum yield is 20-fold greater than that of the free 8-DEA-tC nucleoside, the largest such increase reported to date for a fluorescent nucleoside analogue.
(§2) All photophysical experiments were measured in a quartz sub-micro cuvette (10 mm path length) purchased from Starnacell Inc. Solutions were prepared in 1×PBS buffer at pH 7.4. Steady state emission scans were recorded using a PTI QuantaMaster QM-400 and absorbances were measured on a Shimadzu UV-1700 Pharmaspec spectrometer. Quantum yield measurements were performed the comparative method of Williams et. al. and measured in duplicate, at minimum.[7] Quinine sulfate in 0.1M H2SO4 was used as a reference standard for all photophysical measurements. Measurements by using a commercial sample of pyrrolo-dC to obtain a fluorescence quantum yield of 0.046, matching the value of 0.05 as reported by the Tor group were validated.[8] All measurements were taken with an absorbance range of 0.01-0.1. Subsequent dilutions were performed stepwise in order to obtain a minimum of five absorbance and emission spectra for quantum yield determinations. Representative data from these quantum yield measurements is plotted below. Quantum yield determinations were obtained using the following equation: […]
The determination of quantum yields for single-stranded oligonucleotides containing 8-DEA tC were calculated using the integrated emission intensity measurements of the single strand prior to the addition of the complementary strand, with the following equation. This method was validated by comparison with and confirmed with a SS quantum yield experiment.

[2] = value reported by the Tor group; cited from earlier work
complementary strand [3] = assay: Quantum yield of fluorescence emission of double-stranded oligonucleotides after adding complementary strand; assay type: physicochemical; settings: double-stranded oligonucleotide, 1x PBS buffer pH 7.4
Method: as §1, §2
Samples of double-stranded oligonucleotides were prepared using a known concentration of single-stranded oligonucleotide and adding a total of 2.4 equivalents of complementary strand at room temperature. A single-strand absorbance and emission were taken prior to the addition of the first 1.2 equivalents of complementary strand for purposes of single-strand calculation and verification of hybridization. An additional 1.2 equivalent is added after the first double-strand to ensure that complete hybridization was achieved. Thermal annealing procedures had no effect on the measurements as expected, given that these sequences were chosen to have no competing, stable secondary structures.

[4] = UV/Vis absorption and steady state emission spectra; assay type: physicochemical; settings: 1x PBS buffer pH 7.4
Method: as §2
Normalized absorption and emission plots of single-stranded oligonucleotides and double-stranded oligonucleotides in 1×PBS buffer at pH 7.4 were determined accordingly.

DNA-RNA heteroduplex = assay: Fluorescence turn-on response in DNA-RNA heteroduplex; assay type: physicochemical; settings: 1x PBS buffer at pH 7.4
Excerpt: The RNA version (Y═OH) has been synthesized and characterized. […] The shape (conformation) of double-stranded nucleic acids can vary, and there are three major forms: A, B, and Z. Double-stranded DNA is naturally B form. Double-stranded RNA is naturally A form. And a DNA-RNA heteroduplex also naturally takes A form. For that reason, it is possible to use a DNA-RNA heteroduplex to predict fluorescence properties in pure RNA.

complementary strand [5] = assay: CD melting temperature of oligonucleotide duplexes (ellipticity at 255 nm); assay type: physicochemical
Method: UV CD spectra of oligonucleotide duplexes at a concentration of 5 μM in phosphate buffered saline (10 mM sodium phosphate, pH 7.4, […] potassium chloride, 137 mM sodium chloride) were collected at 25° C. in a 1 cm path length cell on an Aviv model 420 spectrophotometer equipped with a Peltier temperature controller. Background-subtracted spectra were smoothed and normalized to concentration using A260 nm as calculated from detector voltage using the following equation and converted to standard units. […] 255 nm was monitored from 15° C. to 75° C. at 1° C. increments. The TM of each duplex was calculated by fitting the raw data to a two-state model in Igor Pro. Melting curves are reported as fraction unfolded.

| Compound | fluorescence quantum yield ([1]; commercial sample, method validation) | fluorescence quantum yield [2] | ss Φem ([1]; single-stranded oligonucleotide, 1x PBS buffer pH 7.4) | ds Φem (complementary strand [3]) | ds λmax,abs ([4]; double-stranded) [nm] | ds λmax,em ([4]; double-stranded) [nm] | λmax,abs (ss) ([4]; single-stranded) [nm] | λmax,em (ss) ([4]; single-stranded) [nm] | fluorescence turn-on effect in DNA-RNA heteroduplex relative to double-stranded DNA (DNA-RNA heteroduplex) | ΔTm (complementary strand [5]; Tm for natural DNA duplex subtracted from Tm for the 8-DEA-tC-containing duplex) [°C] | Tm (complementary strand [5]; duplex 5 μM in PBS pH 7.4) [°C] |
| --- | --- | --- | --- | --- | --- | --- | --- | --- | --- | --- | --- |
| Cc1cc2cn([C@H]3C[C@H](O)[C@@H](CO)O3)c(=O)nc2[nH]1 [pyrrolo-dC, reference compound] | 0.046 | 0.05 |  |  |  |  |  |  |  |  |  |
| AA: 5′-CGC-AAX-ATC-G-3′ (SEQ ID NO: 18), X = 8-DEA-tC (DNA CGCAACATCG; DNA, [8-DEA-tC] at 6, backbone not given here) |  |  | 0.008 | 0.042 | 410 | 498 | 415 | 497 | at least three times better | -2.6 | 48.4 |
